Patent EP4467137A1, “TREATMENT OF FRONTOTEMPORAL DEMENTIA OR FRONTOTEMPORAL LOBAR DEMENTIA” (Universidad Autónoma de Madrid, priority 2023, dated 2024)

Assays:
[1] = test system: mouse cytokines, chemokines, and growth factors; test: LPS in vivo model: multiplex assay of brain cytokines and chemokines (Luminex xMAP); conditions: 20 mg·kg^-1 i.p.
Method: • Figure 1. Compound 1 reduces the inflammatory response against LPS in vitro. (A) Nitric oxide (NO) production in BV2 cells detected by DAF 24 h after LPS exposure and normalized by cell viability measured by MTT (n = 9). (B) qRT-PCR of TNFα (n = 9) in BV2 cells after 24 h LPS exposure. Sulforaphane (Sfn) was used as a positive control. […] Compound 1 decreases the inflammatory process 4 and 24 hours after LPS administration in vivo. Compound 1 (20 mg·kg^-1) daily was injected i.p. four days before the i.p. LPS (0.5 mg·kg^-1) administration. […] Compound 1 ameliorates the resolution of the inflammatory process triggered by LPS. Multiplex assay of cytokines 4 h (A) and 24 h (B) after the proinflammatory stimuli (n = 5). […] Compound 1 reverts brain microgliosis triggered by LPS. Representative images of brain microglia 4 h and 24 h after the proinflammatory stimuli (A). Mean intensity of IBA-1 per cell 4 h (n = 10) and 24 h (n = 7, except n = 6 LPS + Compound 1) after LPS injection (B). […] Sub-chronical Compound 1 administration improves behavioural parameters in LPS treated mice. Compound 1 (20 mg·kg^-1) was injected once a day via i.p. four days before the i.p. LPS (0.5 mg·kg^-1) administration, thereafter behavioural tests were conducted. (A) Mice weight change (T0 and T24: saline n = 17, LPS n = 17, LPS + Compound 1 n = 19, T4 and T8 saline n = 8, LPS n = 7, LPS + Compound 1 n = 8). (B) Locomotion activity measured by line crossings of an imaginary grid. (C) Scheme of NOR test. (D) Discrimination index (DI) of the mice studied: saline (n = 16), LPS (n = 9) and LPS + Compound 1 (n = 13). […] Compound 1 reduces hyperphosphorylated tau species and tau seeding in vitro. Compound 1 reduces hyperphosphorylated tau levels (AT8) in primary neuronal cultures of mice after 8 days of AVV-hTauP301L treatment. Dimethyl fumarate was used as a positive control (DMF). (A) Representative images, AT8 is shown in green and Map2, marker of neurons, is shown in white. […] Compound 1 reduced tau seeding in HEK-293 tau FRET biosensor measured by flow cytometer (C). Tg4510 mouse brain homogenate was used as aggregant stimuli. […] Data represent mean ± SEM. • Figure 7. Compound 1 reduces hyperphosphorylated tau species in adult mice with hTauP301L tauopathy after 35 days oral administration (50 mg/kg/day). (A). Representative images of hyperphosphorylated tau intensity measured by AT8 and AT180 antibodies in three different regions of the hippocampus (GD, CA3 and CA1) (n = 11-12). (B) Quantification AT8 intensity, normalized to CA3 intensity of Sham animals. (C) Quantification of AT180 intensity, normalized to CA3 intensity of Sham animals (n = 9-12). […] Compound 1 reduces insoluble forms of hyperphosphorylated tau species in adult mice with hTauP301L tauopathy after 35 days oral administration (50 mg/kg/day). (A). Representative images of WB against AT8 and (B) AT180 antibodies of sarkosyl solule and insoluble protein species. Quantification of sarkosyl soluble (n = 10) (C) and insoluble species (D) using AT8 antibody (n = 10). Quantification of sarkosyl soluble (n = 10) (E) and insoluble species (F) using AT180 antibody (n = 10). […] Compound 1 prevents cognitive decline in spatial memory behavioural paradigms in adult mice with hTauP301L tauopathy after 35 days oral administration (20 mg/kg or 50 mg/kg/day). (A) Representation of T-maze alternation test and (B) Object Location test (OLT). (C) Average percentage of success in seven independent attempts (n = 14-19). (D) Discrimination index in the OLT assay (AAV-eGFP, n = 15; AAV-hTau, n = 10; AAV-hTau + Compound 1 at 20 mg/kg, n = 5; AAV-hTau + Compound 1 at 50 mg/kg, n = 8). […] Compound 1 reduces hyperphosphorylated tau species and improves cognitive behaviour in aged (16-18 months old) mice with hTauP301L tauopathy after 35 days oral administration (50 mg/kg/day). (A). Representative images of hyperphosphorylated tau intensity measured by AT8 and AT180 antibodies in three different regions of the hippocampus (GD, CA3 and CA1) (n = 12). […]

[2] = test system: proinflammatory cytokines; test: LPS in vivo model: brain cytokine mRNAs by qRT-PCR; parameters: species or system mouse; conditions: 20 mg·kg^-1 i.p. daily for 4 days; 4 h and 24 h after LPS 0.5 mg·kg^-1 i.p.
Method: (§1) • Figure 1. Compound 1 reduces the inflammatory response against LPS in vitro. (A) Nitric oxide (NO) production in BV2 cells detected by DAF 24 h after LPS exposure and normalized by cell viability measured by MTT (n = 9). (B) qRT-PCR of TNFα (n = 9) in BV2 cells after 24 h LPS exposure. Sulforaphane (Sfn) was used as a positive control. […] Compound 1 decreases the inflammatory process 4 and 24 hours after LPS administration in vivo. Compound 1 (20 mg·kg^-1) daily was injected i.p. four days before the i.p. LPS (0.5 mg·kg^-1) administration. […] Compound 1 ameliorates the resolution of the inflammatory process triggered by LPS. […] (B) Locomotion activity measured by line crossings of an imaginary grid. […] Compound 1 reduced tau seeding in HEK-293 tau FRET biosensor measured by flow cytometer (C). […] Representative images of hyperphosphorylated tau intensity measured by AT8 and AT180 antibodies in three different regions of the hippocampus (GD, CA3 and CA1) (n = 11-12). (B) Quantification AT8 intensity, normalized to CA3 intensity of Sham animals. (C) Quantification of AT180 intensity, normalized to CA3 intensity of Sham animals (n = 9-12). […] Quantification of sarkosyl soluble (n = 10) (C) and insoluble species (D) using AT8 antibody (n = 10). Quantification of sarkosyl soluble (n = 10) (E) and insoluble species (F) using AT180 antibody (n = 10). […]

[3] = Oxygen Radical Absorbance Capacity Assay (ORAC); format: physicochemical; conditions: ORAC > 1.0 is a better ROS scavenger than trolox
Method: The Oxygen Radical Absorbance Capacity Assay (ORAC) was performed as described [Herrera-Arozamena, Clara et al. "Resveratrol-Based MTDLs to Stimulate Defensive and Regenerative Pathways and Block Early Events in Neurodegenerative Cascades." Journal of medicinal chemistry vol. 65,6 (2022): 4727-4751. doi:10.1021/acs.jmedchem.1c01883].

[4] = test system: HEK-293 FRET biosensor containing tau repeating domains; test: Tau seeding assay in HEK-293 tau FRET biosensor cells; format: cell-based; conditions: Tg4510 mouse brain homogenate as aggregant stimulus; increasing concentrations
Method: as §1

Iba-1 = test: LPS in vivo model: brain microgliosis by Iba-1 immunofluorescence; parameters: species or system mouse; conditions: 20 mg·kg^-1 i.p.; 4 and 24 h after LPS
Method: Immunofluorescence labelling in in vitro and in vivo samples was performed as described in [Luengo, Enrique et al. "Implication of type 4 NADPH oxidase (NOX4) in tauopathy." Redox biology vol. 49 (2022): 102210. doi:10.1016/j.redox.2021.102210 ].
Example 2.3.1. Treatment with Compound 1 reduces LPS-induced cytokine expression and release in mouse brain. Mice were treated i.p. with a daily dose of 20 mg·kg^-1 of Compound 1 for 4 consecutive days. On the last day, LPS (0.5 mg·kg^-1) was injected i.p. one h after the compound. Thereafter, behavioural, and biochemical outcomes were analysed at different time points.
Example 2.3.2. Treatment with Compound 1 reduces LPS-induced microgliosis in mouse brain. Microglial cells constitute the immune cells of our brain; therefore, they play a key role in regulating neuroinflammation. Microgliosis was evaluated using Iba-1 as a microglial marker in immunofluorescence experiments 4 h and 24 h after the inflammatory stimuli (LPS).

SMILES: COc1ccc2c(c1)CC(c1c[nH]c3ccc(OC)cc13)N2 (stereo not shown) [Compound 1, 5-Methoxy-3-(5-methoxyindolin-2-yl)-1H-indole]
- IP10 ([1]; 4 and 24 h after LPS): decreased significantly
- KC ([1]; 4 and 24 h after LPS): decreased significantly
- MIP2 ([1]; 4 and 24 h after LPS): decreased significantly
- RANTES ([1]; 4 and 24 h after LPS): decreased significantly
- IL-6 in brain ([1]; 4 h after LPS): marked reduction
- IL-7 in brain ([1]; 4 h after LPS): marked reduction
- MCP-1 ([1]; 4 h after LPS): decreased significantly
- Additional cytokines (Figure 3) ([1]; 4 h and 24 h after LPS, most of them): decreased with compound treatment
- IL-6 in brain ([1]; 24 h after LPS): restored to basal conditions
- IL-7 in brain ([1]; 24 h after LPS): restored to basal conditions
- granulocyte-colony stimulating factor (G-CSF) brain levels ([1]; after LPS): significantly reduced
- IL-1β mRNA in brain [2]: reduced
- TNFα mRNA in brain [2]: reduced
- ORAC (trolox equiv.) [3]: 2.3 ± 0.3 trolox equiv.
- tau seeding (integrated FRET density) [4]: reduce tau seeding ability following a concentration dependent effect
- mean fluorescence intensity of Iba-1 per cell (Iba-1): restored to saline levels
